Laboratory results published in ChEMBL document CHEMBL1201862, “PubChem BioAssay data set” (2004).
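Protocol summary: plate cells (96-well), add compound at 5 concentrations, incubate 48 h, interpolate endpoints linearly. The concentration for 50% growth inhibition is given as GI50.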 The source made the active and inactive calls. No stated cut-off is given here; in the data, active = GI50 up to about 1.1 µM and inactive = higher.

Columns and labels:
Assay in all cases: DTP human tumour cell line panel, 48 h
OVCAR-5 = test system: OVCAR-5
LOX IMVI = test system: LOX IMVI
SF-539 = test system: SF-539
U-251 = test system: U-251
A549 = test system: A549
IGROV-1 = test system: IGROV-1
SW-620 = test system: SW-620
HOP-62 = test system: HOP-62
COLO 205 = test system: COLO 205
UO-31 = test system: UO-31
MDA-MB-231 = test system: MDA-MB-231
OVCAR-3 = test system: OVCAR-3
HCT-15 = test system: HCT-15
ACHN = test system: ACHN
MDA-N = test system: MDA-N
BT-549 = test system: BT-549
RPMI-8226 = test system: RPMI-8226
Hs-578T = test system: Hs-578T
A498 = test system: A498
NCI-H522 = test system: NCI-H522

Row | Compound | GI50 (OVCAR-5) | GI50 (LOX IMVI) | GI50 (SF-539) | GI50 (U-251) | GI50 (A549) | GI50 (IGROV-1) | GI50 (SW-620) | GI50 (HOP-62) | GI50 (COLO 205) | GI50 (UO-31) | GI50 (MDA-MB-231) | GI50 (OVCAR-3) | GI50 (HCT-15) [µM] | GI50 (ACHN) | GI50 (MDA-N) | GI50 (BT-549) | GI50 (RPMI-8226) | GI50 (Hs-578T) | GI50 (A498) | GI50 (NCI-H522)
1 | CCOC(=O)C(NC(=O)c1ccccc1)(Nc1ccc(S(=O)(=O)Nc2nc(C)cc(C)n2)cc1)C(F)(F)F (configuration not stated) | > 100 µM (inactive) | > 100 µM (inactive) | > 100 µM (inactive) | > 100 µM (inactive) | > 100 µM (inactive) | > 100 µM (inactive) | > 100 µM (inactive) | > 100 µM (inactive) | > 100 µM (inactive) | > 100 µM (inactive) | 86.5 µM (inactive) | > 100 µM (inactive) | > 100 | > 100 µM (inactive) | > 100 µM (inactive) | > 100 µM (inactive) | > 100 µM (inactive) | > 100 µM (inactive) | – | –
2 | O=C(NCCC1CNc2ccccc21)OCc1ccccc1 (configuration not stated) | > 100 µM (inactive) | – | – | > 100 µM (inactive) | > 100 µM (inactive) | > 100 µM (inactive) | > 100 µM (inactive) | > 100 µM (inactive) | > 100 µM (inactive) | > 100 µM (inactive) | > 100 µM (inactive) | > 100 µM (inactive) | > 100 | > 100 µM (inactive) | > 100 µM (inactive) | > 100 µM (inactive) | > 100 µM (inactive) | > 100 µM (inactive) | > 100 µM (inactive) | > 100 µM (inactive)
3 | COC1=Nc2ccccc2S(=O)(=O)C=C1 | 16.9 µM (inactive) | 2.84 µM (inactive) | 16.7 µM (inactive) | 11.4 µM (inactive) | 18.2 µM (inactive) | 13.7 µM (inactive) | 1.73 µM (inactive) | 43.3 µM (inactive) | 1.79 µM (inactive) | 5.46 µM (inactive) | 13.2 µM (inactive) | 2.78 µM (inactive) | 3.42 | 3.07 µM (inactive) | 7.4 µM (inactive) | 6.75 µM (inactive) | – | 18.7 µM (inactive) | 16.8 µM (inactive) | 1.21 µM (inactive)
4 | CC(C)(C)c1ccccc1N1C(=O)c2ccc3c4c(ccc(c24)C1=O)N(c1ccccc1C(C)(C)C)C3=O | > 100 µM (inactive) | – | > 100 µM (inactive) | > 100 µM (inactive) | > 100 µM (inactive) | > 100 µM (inactive) | > 100 µM (inactive) | > 100 µM (inactive) | > 100 µM (inactive) | > 100 µM (inactive) | > 100 µM (inactive) | > 100 µM (inactive) | > 100 | > 100 µM (inactive) | > 100 µM (inactive) | > 100 µM (inactive) | > 100 µM (inactive) | 3.03 µM (inactive) | – | 5.07 µM (inactive)
5 | COC(=O)c1c(O)ccc2c1c1c(n2Cc2ccc(OC)cc2)C(=O)c2ccccc2C1=O | 25.4 µM (inactive) | 5.85 µM (inactive) | 14.4 µM (inactive) | 8.67 µM (inactive) | 4.91 µM (inactive) | 6.21 µM (inactive) | 18.6 µM (inactive) | 16.3 µM (inactive) | 1.84 µM (inactive) | 3.92 µM (inactive) | – | 16.1 µM (inactive) | 3.74 | 2.62 µM (inactive) | 12.5 µM (inactive) | 0.0131 µM (active) | 0.168 µM (active) | 13.9 µM (inactive) | 20.5 µM (inactive) | 4.1 µM (inactive)
6 | COc1ccc(N(C(=O)Nc2ccc(Cl)c(Cl)c2)C2c3cccn3C(=O)N2c2ccc(Cl)c(Cl)c2)cc1 (configuration not stated) | 16.4 µM (inactive) | 15.8 µM (inactive) | > 100 µM (inactive) | > 100 µM (inactive) | 80.5 µM (inactive) | > 100 µM (inactive) | > 100 µM (inactive) | – | > 100 µM (inactive) | > 100 µM (inactive) | 47.8 µM (inactive) | – | 94 | > 100 µM (inactive) | 87.7 µM (inactive) | > 100 µM (inactive) | 0.0724 µM (active) | > 100 µM (inactive) | 27.7 µM (inactive) | –
7 | COc1cccc(-c2cc(O)c3cc(NC(C)=O)ccc3n2)c1 | 59.4 µM (inactive) | 22.5 µM (inactive) | 14.2 µM (inactive) | 9.57 µM (inactive) | 61.7 µM (inactive) | 27.2 µM (inactive) | 47.8 µM (inactive) | 32.4 µM (inactive) | 22.4 µM (inactive) | 71.6 µM (inactive) | 31.4 µM (inactive) | – | 32 | > 100 µM (inactive) | – | > 100 µM (inactive) | 42.9 µM (inactive) | 2.63 µM (inactive) | 17 µM (inactive) | 5.11 µM (inactive)
